# Measured values taken from PMC6100079, “Design, Synthesis, and Evaluation of Homochiral Peptides Containing Arginine and Histidine as Molecular Transporters” (Molecules : A Journal of Synthetic Chemistry and Natural …, 2018).
# Ends that are not written are not given here. Peptide text beside a SMILES is read from it. * marks the point of attachment. Oleoyl = CCCCCCCC/C=C\CCCCCCCC(=O)*; HOOC(CH2)6CO = O=C(O)CCCCCCC(=O)*; Palmitoyl = CCCCCCCCCCCCCCCC(=O)*; Myristoyl = CCCCCCCCCCCCCC(=O)*; Lauroyl = CCCCCCCCCCCC(=O)*
# Experiments:
# [1] = system: human ovarian adenocarcinoma (SK-OV-3) cells; assay: Cytotoxicity (MTS proliferation assay) of peptides in SK-OV-3 cells; format: cell-based
# Method: (§1) All bioassays were performed in triplicate.
# (§2) The linear and cyclic peptides at concentrations (5, 10, 25, 50 and 100 µM) were added to the cells and incubated at 37 °C with 5% carbon dioxide for 72 h. After 72 h of incubation, the pH of media were tested. […] Then 20 µL of MTS reagent was added to each well. […] The […] of the formazan product was measured at 490 nm using a Spectra Max M2 microplate spectrophotometer. The percentage of cell survival was calculated as [(OD value of cells treated with the test mixture of compounds) − (OD value of culture medium)]/[(OD value of control cells) − (OD value of culture medium)] × 100%.
# [2] = system: human leukemia cancer cell line (CCRF-CEM); assay: Cytotoxicity (MTS proliferation assay) of peptides in CCRF-CEM cells; format: cell-based
# Method: as §1, §2
# CCRF-CEM cells = assay: Antiproliferative assay of anticancer drugs using C20-(HR)4 in CCRF-CEM cells; conditions: drug 5 µM + C20-(HR)4 50 µM, 72 h, vs drug alone
# SK-OV-3 cells = assay: Antiproliferative assay of anticancer drugs using C20-(HR)4 in SK-OV-3 cells; format: cell-based, human; conditions: SK-OV-3 (for doxorubicin, epirubicin per b1 and b46; not restated for the 1.5 fold sentence); drug 5 µM + C20-(HR)4 50 µM; 72 h; vs drug alone
# Method: as §1
# [3] = SK-OV-3, up to / at 50 µM peptide
Compound,"cytotoxicity (in words) ([1]; SK-OV-3, 100 µM peptide)","cytotoxicity (in words) [1, 3]",cytotoxicity (in words) ([2]; 100 µM peptide),cytotoxicity (in words) ([2]; up to / at 50 µM peptide),further results
CCCCCCCCCCCC(=O)N[C@@H](Cc1c[nH]cn1)C(=O)N[C@@H](CCCNC(=N)N)C(=O)N[C@@H](Cc1c[nH]cn1)C(=O)N[C@@H](CCCNC(=N)N)C(=O)N[C@@H](Cc1c[nH]cn1)C(=O)N[C@@H](CCCNC(=N)N)C(=O)N[C@@H](Cc1c[nH]cn1)C(=O)N[C@@H](CCCNC(=N)N)C(=O)O [C12-(HR)4] (Lauroyl-HRHRHRHR-OH),mild cytotoxicity,not toxic,mild cytotoxicity,not toxic,"cytotoxicity (in words) ([1]; SK-OV-3, up to / at 50 µM peptide, listed as C12): did not show cytotoxicity; cytotoxicity (in words) ([2]; up to / at 50 µM peptide, listed as C12): did not show cytotoxicity"
CC(=O)O[C@H]1C(=O)[C@@]2(C)[C@H]([C@H](OC(=O)c3ccccc3)[C@]3(O)C[C@H](OC(=O)[C@H](O)[C@@H](NC(=O)c4ccccc4)c4ccccc4)C(C)=C1C3(C)C)[C@]1(OC(C)=O)CO[C@@H]1C[C@@H]2O [paclitaxel],,,,,improvement of the drug's anti-proliferating potency by C20-(HR)4 (CCRF-CEM cells): did not improve
CCCCCCCCCCCCCC(=O)N[C@@H](Cc1c[nH]cn1)C(=O)N[C@@H](CCCNC(=N)N)C(=O)N[C@@H](Cc1c[nH]cn1)C(=O)N[C@@H](CCCNC(=N)N)C(=O)N[C@@H](Cc1c[nH]cn1)C(=O)N[C@@H](CCCNC(=N)N)C(=O)N[C@@H](Cc1c[nH]cn1)C(=O)N[C@@H](CCCNC(=N)N)C(=O)O [C14-(HR)4] (Myristoyl-HRHRHRHR-OH),mild cytotoxicity,not toxic,mild cytotoxicity,not toxic,"cytotoxicity (in words) ([1]; SK-OV-3, up to / at 50 µM peptide, listed as C14): did not show cytotoxicity; cytotoxicity (in words) ([2]; up to / at 50 µM peptide, listed as C14): did not show cytotoxicity"
COc1cc([C@@H]2c3cc4c(cc3[C@@H](O[C@@H]3O[C@@H]5CO[C@@H](C)O[C@H]5[C@H](O)[C@H]3O)[C@H]3COC(=O)[C@H]23)OCO4)cc(OC)c1O [etoposide],,,,,improvement of the drug's anti-proliferating potency by C20-(HR)4 (CCRF-CEM cells): did not improve; improvement of the drug's anti-proliferation potency / toxicity upon loading (physical mixture) with C20-(HR)4 (SK-OV-3 cells): one and half
Ac-HRHRHRHR [C2-(HR)4],,not toxic,,not toxic,
CCCCCCCCCCCCCCCC(=O)N[C@@H](Cc1c[nH]cn1)C(=O)N[C@@H](CCCNC(=N)N)C(=O)N[C@@H](Cc1c[nH]cn1)C(=O)N[C@@H](CCCNC(=N)N)C(=O)N[C@@H](Cc1c[nH]cn1)C(=O)N[C@@H](CCCNC(=N)N)C(=O)N[C@@H](Cc1c[nH]cn1)C(=O)N[C@@H](CCCNC(=N)N)C(=O)O [C16-(HR)4] (Palmitoyl-HRHRHRHR-OH),,significant reduction in the cell viability,,significant reduction in the cell viability,"reduction in cell viability ([1]; SK-OV-3 (sentence speaks of both cell lines), 50 and 100 µM peptide, respectively, 72 h, MTS): 35–70%; cytotoxic effect / reduction of proliferation ([1]; SK-OV-3, 10 µM peptide, 72 h, MTS): 0%; reduction of proliferation ([1]; SK-OV-3, 50 µM peptide): 11%; cytotoxic effect ([2]; 10 µM peptide, 72 h, MTS): 0%"
CCCCCCCC/C=C\CCCCCCCC(=O)N[C@@H](Cc1c[nH]cn1)C(=O)N[C@@H](CCCNC(=N)N)C(=O)N[C@@H](Cc1c[nH]cn1)C(=O)N[C@@H](CCCNC(=N)N)C(=O)N[C@@H](Cc1c[nH]cn1)C(=O)N[C@@H](CCCNC(=N)N)C(=O)N[C@@H](Cc1c[nH]cn1)C(=O)N[C@@H](CCCNC(=N)N)C(=O)O [C18-(HR)4] (Oleoyl-HRHRHRHR-OH),mild cytotoxicity,not toxic,mild cytotoxicity,not toxic,"cytotoxicity (in words) ([1]; SK-OV-3, up to / at 50 µM peptide, listed as C18): did not show cytotoxicity; cytotoxicity (in words) ([2]; up to / at 50 µM peptide, listed as C18): did not show cytotoxicity"
N=C(N)NCCC[C@H](NC(=O)[C@H](Cc1c[nH]cn1)NC(=O)[C@H](CCCNC(=N)N)NC(=O)[C@H](Cc1c[nH]cn1)NC(=O)[C@H](CCCNC(=N)N)NC(=O)[C@H](Cc1c[nH]cn1)NC(=O)[C@H](CCCNC(=N)N)NC(=O)[C@H](Cc1c[nH]cn1)NC(=O)CCCCCCC(=O)O)C(=O)O [C8-(HR)4] ({HOOC(CH2)6CO}-HRHRHRHR-OH),mild cytotoxicity,not toxic,mild cytotoxicity,not toxic,"cytotoxicity (in words) ([1]; SK-OV-3, up to / at 50 µM peptide, listed as C8): did not show cytotoxicity; cytotoxicity (in words) ([2]; up to / at 50 µM peptide, listed as C8): did not show cytotoxicity"
